Results published in PubChem BioAssay (NCI).
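The compound was tested at five concentrations on cells cultured in 96-well plates, with a 48-hour exposure period. TGI: concentration producing complete growth inhibition.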

How the values were obtained:
Experiment in all cases: NCI tumour cell line growth inhibition, 48 h
SK-MEL-5 melanoma = tested on: SK-MEL-5 melanoma
A498 renal = tested on: A498 renal
LOX IMVI melanoma = tested on: LOX IMVI melanoma
SW-620 colon = tested on: SW-620 colon
CAKI-1 renal = tested on: CAKI-1 renal
HCC-2998 colon = tested on: HCC-2998 colon
UACC-62 melanoma = tested on: UACC-62 melanoma
RPMI-8226 leukemia = tested on: RPMI-8226 leukemia
MALME-3M melanoma = tested on: MALME-3M melanoma
IGROV1 ovarian = tested on: IGROV1 ovarian
ACHN renal = tested on: ACHN renal
UO-31 renal = tested on: UO-31 renal
M14 melanoma = tested on: M14 melanoma
DLD-1 colon = tested on: DLD-1 colon
HCT-116 colon = tested on: HCT-116 colon
NCI-H522 lung = tested on: NCI-H522 lung
TK-10 renal = tested on: TK-10 renal
SK-MEL-28 melanoma = tested on: SK-MEL-28 melanoma
HOP-18 NSCLC = tested on: HOP-18 NSCLC
DMS 114 small cell lung = tested on: DMS 114 small cell lung
A549 NSCLC = tested on: A549 NSCLC
NCI-H460 lung = tested on: NCI-H460 lung
HOP-62 NSCLC = tested on: HOP-62 NSCLC
SNB-78 CNS = tested on: SNB-78 CNS
U251 CNS = tested on: U251 CNS
SN12C renal = tested on: SN12C renal
HT29 colon = tested on: HT29 colon
OVCAR-3 ovarian = tested on: OVCAR-3 ovarian
OVCAR-5 ovarian = tested on: OVCAR-5 ovarian
RXF 393 renal = tested on: RXF 393 renal
OVCAR-4 ovarian = tested on: OVCAR-4 ovarian
M19-MEL melanoma = tested on: M19-MEL melanoma
UACC-257 melanoma = tested on: UACC-257 melanoma
HOP-92 NSCLC = tested on: HOP-92 NSCLC
EKVX NSCLC = tested on: EKVX NSCLC
SF-295 CNS = tested on: SF-295 CNS
LXFL 529 NSCLC = tested on: LXFL 529 NSCLC
KM20L2 colon = tested on: KM20L2 colon
SF-268 CNS = tested on: SF-268 CNS
SNB-75 CNS = tested on: SNB-75 CNS
786-0 renal = tested on: 786-0 renal
OVCAR-8 ovarian = tested on: OVCAR-8 ovarian
SF-539 CNS = tested on: SF-539 CNS
KM12 colon = tested on: KM12 colon
NCI-H23 lung = tested on: NCI-H23 lung
SK-OV-3 ovarian = tested on: SK-OV-3 ovarian
DMS 273 small cell lung = tested on: DMS 273 small cell lung
SNB-19 CNS = tested on: SNB-19 CNS
NCI-H226 lung = tested on: NCI-H226 lung
XF 498 CNS = tested on: XF 498 CNS
COLO 205 colon = tested on: COLO 205 colon
HCT-15 colon = tested on: HCT-15 colon
RXF-631 renal = tested on: RXF-631 renal
K-562 leukemia = tested on: K-562 leukemia
SK-MEL-2 melanoma = tested on: SK-MEL-2 melanoma
MOLT-4 leukemia = tested on: MOLT-4 leukemia

Measured: TGI

Cc1ccc(NC(=O)C(=O)CC(=O)c2ccccc2)cc1C
not listed: RXF-631 renal | K-562 leukemia | SK-MEL-2 melanoma | MOLT-4 leukemia
> 100 µM: all other assays above

N#CC1C(=O)NC(=O)C1=O (stereo unspecified)
not listed: DLD-1 colon | A549 NSCLC
> 100 µM: all other assays above
